Data taken from patent US6573293B2, “Pyrrole substituted 2-indolinone protein kinase inhibitors” (Sugen, Inc., priority 2000, dated 2003).

What was measured:
[1] = biological target: T1, EGFR (Homo sapiens, UniProt P00533); assay: cell EGF assay; type: cell-based
T1 construct: A431 cell lysate (SUGEN, Inc.); host or cells: A431
Outline: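 Cells expressing the kinase are exposed to compound, then stimulated with activating ligand and lysed. Lysate is captured on substrate-specific antibody ELISA plates and substrate phosphorylation is detected with anti-phosphotyrosine antibody, relative to untreated control cells.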

[2] = biological target: T2, PDGFR-β (Homo sapiens, UniProt P09619); assay: PDGFR bioassay (bio PDGF); type: biochemical
T2 construct: host or cells: NIH 3T3

[3] = biological target: T1, EGFR; assay: EGFR bioassay (bio EGF); type: biochemical
[4] = biological target: T3, HER-2 kinase (Homo sapiens, UniProt P04626); assay: Cellular HER-2 kinase assay; type: cell-based; conditions: read-out: Her2 Kinase IC50
T3 construct: Use EGFr/HER-2 chimera/3T3-C7 cell line for this assay; It is expressed in mouse NIH 3T3 clone C7 cells; P00533 (Epidermal growth factor receptor)

[5] = biological target: T4, GST-Flk1 (Mus musculus, UniProt P35918); assay: GST-FLK-1 bioassay (bio flkGST); type: biochemical
T4 construct: GST-Flk1cd purified from sf9 recombinant baculovirus transformation; host or cells: Sf9 (baculovirus)

[6] = biological target: GST-FGFR1 (Homo sapiens, UniProt P11362); assay: FGFR1 bioassay (bio PGFR1); type: biochemical
[7] = biological target: T5, human cdk2/cyclin A (Homo sapiens, UniProt P24941); assay: CDK2/cyclin A scintillation proximity assay (cdk2spa); type: biochemical; conditions: read-out: cdk2spa C50
T5 construct: host or cells: Sf9

[8] = biological target: T6, HA epitope-tagged full length pyk2 (FL.pyk2-HA) (Homo sapiens, UniProt Q14289); assay: PYK2 bioassay; type: biochemical; conditions: read-out: bio pyk2 IC50
T6 construct: host or cells: Sf9
T6 sequence (Q14289 whole entry): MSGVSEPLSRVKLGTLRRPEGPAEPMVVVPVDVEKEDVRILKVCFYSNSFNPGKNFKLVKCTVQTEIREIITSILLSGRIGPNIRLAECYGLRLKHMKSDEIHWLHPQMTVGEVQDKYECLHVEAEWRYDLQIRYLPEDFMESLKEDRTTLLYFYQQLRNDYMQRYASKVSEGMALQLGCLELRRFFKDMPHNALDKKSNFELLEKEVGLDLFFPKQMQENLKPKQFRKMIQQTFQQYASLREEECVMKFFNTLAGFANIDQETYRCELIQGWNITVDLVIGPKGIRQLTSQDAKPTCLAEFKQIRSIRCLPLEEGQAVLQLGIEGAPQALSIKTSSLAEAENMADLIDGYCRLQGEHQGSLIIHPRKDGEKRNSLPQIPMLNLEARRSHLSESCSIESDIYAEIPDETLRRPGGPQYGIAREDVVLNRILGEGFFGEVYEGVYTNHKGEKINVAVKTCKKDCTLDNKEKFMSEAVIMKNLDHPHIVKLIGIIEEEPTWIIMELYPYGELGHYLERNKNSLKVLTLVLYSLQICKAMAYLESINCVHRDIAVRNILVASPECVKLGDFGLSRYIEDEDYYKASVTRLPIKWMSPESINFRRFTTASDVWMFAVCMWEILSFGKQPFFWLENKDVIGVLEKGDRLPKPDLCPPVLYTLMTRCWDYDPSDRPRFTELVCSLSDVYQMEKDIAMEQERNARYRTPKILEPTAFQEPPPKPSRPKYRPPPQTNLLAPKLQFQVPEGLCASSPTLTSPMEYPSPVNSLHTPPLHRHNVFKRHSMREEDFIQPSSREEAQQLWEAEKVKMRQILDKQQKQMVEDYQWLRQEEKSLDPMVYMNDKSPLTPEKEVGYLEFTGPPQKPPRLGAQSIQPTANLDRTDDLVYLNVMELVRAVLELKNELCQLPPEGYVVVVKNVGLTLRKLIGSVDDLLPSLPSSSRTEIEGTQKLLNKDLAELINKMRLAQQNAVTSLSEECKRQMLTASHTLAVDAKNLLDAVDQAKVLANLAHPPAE

T1 sequence (P00533 25-1210): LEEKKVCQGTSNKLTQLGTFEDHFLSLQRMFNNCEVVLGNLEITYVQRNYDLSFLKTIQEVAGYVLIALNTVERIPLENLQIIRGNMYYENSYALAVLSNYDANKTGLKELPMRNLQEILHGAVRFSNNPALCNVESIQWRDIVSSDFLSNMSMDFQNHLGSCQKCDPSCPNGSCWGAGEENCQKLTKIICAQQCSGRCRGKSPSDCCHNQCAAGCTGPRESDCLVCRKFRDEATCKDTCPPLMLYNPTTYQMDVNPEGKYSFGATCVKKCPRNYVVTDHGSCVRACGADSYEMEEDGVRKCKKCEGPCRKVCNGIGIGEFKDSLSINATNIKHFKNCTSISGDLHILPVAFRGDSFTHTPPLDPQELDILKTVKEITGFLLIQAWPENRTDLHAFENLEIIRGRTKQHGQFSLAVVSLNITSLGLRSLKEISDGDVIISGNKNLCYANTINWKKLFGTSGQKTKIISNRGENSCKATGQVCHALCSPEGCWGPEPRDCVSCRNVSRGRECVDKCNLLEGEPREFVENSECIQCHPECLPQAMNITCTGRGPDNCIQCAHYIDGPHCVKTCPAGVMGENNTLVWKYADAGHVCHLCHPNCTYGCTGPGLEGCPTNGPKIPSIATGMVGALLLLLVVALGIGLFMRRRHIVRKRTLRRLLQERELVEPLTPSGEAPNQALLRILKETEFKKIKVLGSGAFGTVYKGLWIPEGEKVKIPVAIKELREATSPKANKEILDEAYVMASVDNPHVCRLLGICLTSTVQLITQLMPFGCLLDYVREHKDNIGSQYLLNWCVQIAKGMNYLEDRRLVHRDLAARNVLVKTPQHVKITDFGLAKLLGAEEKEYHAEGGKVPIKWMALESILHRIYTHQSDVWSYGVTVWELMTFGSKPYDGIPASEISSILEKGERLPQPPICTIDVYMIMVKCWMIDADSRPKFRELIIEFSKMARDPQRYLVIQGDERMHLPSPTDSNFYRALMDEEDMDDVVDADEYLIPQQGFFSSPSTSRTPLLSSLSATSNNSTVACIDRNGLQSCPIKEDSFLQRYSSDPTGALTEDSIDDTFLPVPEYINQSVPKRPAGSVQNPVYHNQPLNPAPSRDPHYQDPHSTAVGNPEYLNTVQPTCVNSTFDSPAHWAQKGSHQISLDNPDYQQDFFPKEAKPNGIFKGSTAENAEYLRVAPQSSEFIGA
T2 sequence (P09619 33-1106): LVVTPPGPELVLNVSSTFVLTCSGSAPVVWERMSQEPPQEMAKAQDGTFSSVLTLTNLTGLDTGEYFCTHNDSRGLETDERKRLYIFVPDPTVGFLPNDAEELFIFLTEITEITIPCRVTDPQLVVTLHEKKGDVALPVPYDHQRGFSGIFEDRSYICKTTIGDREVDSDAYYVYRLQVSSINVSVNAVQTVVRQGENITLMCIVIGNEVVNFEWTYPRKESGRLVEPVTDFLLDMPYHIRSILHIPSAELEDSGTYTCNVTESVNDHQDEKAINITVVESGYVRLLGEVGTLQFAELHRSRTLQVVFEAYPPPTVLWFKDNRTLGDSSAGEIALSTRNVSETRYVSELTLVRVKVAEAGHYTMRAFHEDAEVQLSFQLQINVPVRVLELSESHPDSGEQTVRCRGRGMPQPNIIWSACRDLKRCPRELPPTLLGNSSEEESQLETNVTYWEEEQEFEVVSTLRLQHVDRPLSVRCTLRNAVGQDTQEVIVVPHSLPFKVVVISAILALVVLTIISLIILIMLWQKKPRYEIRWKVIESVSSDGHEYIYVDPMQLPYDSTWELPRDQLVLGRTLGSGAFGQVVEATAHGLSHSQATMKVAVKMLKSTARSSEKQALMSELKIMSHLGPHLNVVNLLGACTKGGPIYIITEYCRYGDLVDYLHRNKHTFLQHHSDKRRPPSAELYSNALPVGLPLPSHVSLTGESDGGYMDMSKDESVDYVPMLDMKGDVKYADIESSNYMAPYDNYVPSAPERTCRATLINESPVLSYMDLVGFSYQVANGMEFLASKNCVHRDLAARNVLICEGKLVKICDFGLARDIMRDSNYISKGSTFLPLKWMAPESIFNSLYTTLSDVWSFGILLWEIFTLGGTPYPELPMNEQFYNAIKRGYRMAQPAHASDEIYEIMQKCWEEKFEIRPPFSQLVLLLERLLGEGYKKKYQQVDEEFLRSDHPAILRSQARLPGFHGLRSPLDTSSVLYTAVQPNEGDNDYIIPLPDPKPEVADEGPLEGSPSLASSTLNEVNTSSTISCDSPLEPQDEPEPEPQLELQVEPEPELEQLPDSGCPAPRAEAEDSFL
Chain of GST-FGFR1 (P11362 22-822): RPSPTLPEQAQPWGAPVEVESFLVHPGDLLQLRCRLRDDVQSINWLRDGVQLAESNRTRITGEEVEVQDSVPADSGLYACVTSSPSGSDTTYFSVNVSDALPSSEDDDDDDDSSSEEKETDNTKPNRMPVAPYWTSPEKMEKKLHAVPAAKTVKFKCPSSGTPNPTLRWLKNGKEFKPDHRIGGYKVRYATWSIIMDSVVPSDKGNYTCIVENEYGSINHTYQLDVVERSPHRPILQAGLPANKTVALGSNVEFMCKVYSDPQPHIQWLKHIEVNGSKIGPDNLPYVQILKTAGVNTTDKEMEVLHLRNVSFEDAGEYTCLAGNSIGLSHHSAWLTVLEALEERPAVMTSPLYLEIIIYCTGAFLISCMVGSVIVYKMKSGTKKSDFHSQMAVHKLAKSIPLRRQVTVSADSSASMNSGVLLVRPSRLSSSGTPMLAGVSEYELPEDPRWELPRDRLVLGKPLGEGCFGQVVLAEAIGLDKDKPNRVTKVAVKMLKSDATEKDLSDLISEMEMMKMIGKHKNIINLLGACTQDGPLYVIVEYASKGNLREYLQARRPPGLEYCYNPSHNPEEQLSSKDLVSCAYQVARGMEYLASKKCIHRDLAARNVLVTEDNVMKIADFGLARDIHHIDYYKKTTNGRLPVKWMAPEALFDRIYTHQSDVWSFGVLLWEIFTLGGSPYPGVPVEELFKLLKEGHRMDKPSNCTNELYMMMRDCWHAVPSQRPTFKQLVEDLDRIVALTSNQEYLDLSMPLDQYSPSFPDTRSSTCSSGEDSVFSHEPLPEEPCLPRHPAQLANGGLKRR
T4 sequence (P35918 784-1345 limits assumed): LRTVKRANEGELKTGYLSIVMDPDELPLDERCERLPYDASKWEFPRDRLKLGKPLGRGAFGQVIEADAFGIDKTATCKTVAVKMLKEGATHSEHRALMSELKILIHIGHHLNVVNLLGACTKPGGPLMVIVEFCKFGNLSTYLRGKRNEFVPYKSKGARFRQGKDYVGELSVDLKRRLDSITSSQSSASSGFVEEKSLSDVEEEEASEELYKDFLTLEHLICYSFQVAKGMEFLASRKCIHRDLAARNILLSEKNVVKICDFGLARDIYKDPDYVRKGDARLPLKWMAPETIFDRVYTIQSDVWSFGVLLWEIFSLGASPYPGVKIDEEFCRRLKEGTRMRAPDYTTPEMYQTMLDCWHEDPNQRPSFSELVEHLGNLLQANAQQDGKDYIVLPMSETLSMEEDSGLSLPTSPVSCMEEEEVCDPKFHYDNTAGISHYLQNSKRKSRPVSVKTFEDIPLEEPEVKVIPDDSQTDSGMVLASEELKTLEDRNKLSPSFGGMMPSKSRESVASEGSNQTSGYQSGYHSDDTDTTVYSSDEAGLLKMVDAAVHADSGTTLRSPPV
T3 sequence (P04626 720-987 limits assumed): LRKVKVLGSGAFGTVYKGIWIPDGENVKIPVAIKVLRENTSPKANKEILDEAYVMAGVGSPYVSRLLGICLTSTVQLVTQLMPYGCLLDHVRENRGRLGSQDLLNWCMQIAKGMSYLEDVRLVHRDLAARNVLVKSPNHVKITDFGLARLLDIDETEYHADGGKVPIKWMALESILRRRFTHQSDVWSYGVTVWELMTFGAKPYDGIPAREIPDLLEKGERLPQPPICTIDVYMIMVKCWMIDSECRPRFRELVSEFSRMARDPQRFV

SMILES | IC50 [1] | IC50 [2] | IC50 [3] | IC50 [4] | IC50 [5] | IC50 [6] | IC50 [7] | IC50 [8]
CCN(CC)CCNC(=O)c1[nH]c(/C=C2\C(=O)Nc3ccc(Br)cc32)c2c1CCCC2 [Example 17, 3-(5-Bromo-2-oxo-1,2-dihydroindol-3-ylidenemethyl)-4,5,6,7-tetrahydro-2H-isoindole-1-carboxylic acid (2-diethylaminoethyl)amide] | 11.5 µM | 94.4 µM | 0.83 µM | 15.9 µM | 8.25 µM | 2.47 µM | > 10 µM | 
Cc1[nH]c(/C=C2\C(=O)Nc3ccc(Br)cc32)c(C)c1C(=O)NCCN(C)C [Example 48, 5-(5-Bromo-2-oxo-1,2-dihydroindol-3-ylidenemethyl)-2,4-dimethyl-1H-pyrrole-3-carboxylic acid (2-dimethylamino-ethyl)amide] | 21.6 µM | < 0.78 µM | 17.9 µM | 7.93 µM | 0.006 µM | 0.3 µM |  | 0.09 µM
CNS(=O)(=O)c1ccc2c(c1)C(=Cc1[nH]cc(C(=O)NCC(=O)O)c1C)C(=O)N2 [Example 118, {[4-Methyl-5-(5-methylsulfamoyl-2-oxo-1,2-dihydro-indol-3-ylidenemethyl)-1H-pyrrole-3-carbonyl]-amino}-acetic acid] |  |  | > 100 µM |  |  |  | 0.002 µM | 
CCN(CC)CCNC(=O)c1c(C)[nH]c(/C=C2\C(=O)Nc3ccc(S(=O)(=O)Nc4cccc(Cl)c4)cc32)c1C [Example 88, 5-[5-(3-Chloro-phenylsulfamoyl)-2-oxo-1,2-dihydroindol-3-ylidenemethyl]-2,4-dimethyl-1H-pyrrole-3-carboxylic acid (2-diethylaminoethyl)amide] |  | 8.06 µM | 2.36 µM | > 100 µM | 0.35 µM | 1.18 µM |  | 0.09 µM
Cc1cc(C(=O)O)[nH]c1/C=C1\C(=O)Nc2ccccc21 [Example 1, 4-Methyl-5-(2-oxo-1,2-dihydroindol-3-ylidenemethyl)-1H-pyrrole-2-carboxylic acid] | > 100 µM | > 100 µM | > 100 µM |  | 57.7 µM | 15.2 µM |  | > 100 µM
CCOC(=O)CNC(=O)c1c[nH]c(C=C2C(=O)Nc3ccc(S(=O)(=O)NC)c(C)c32)c1C [Example 116, {[4-Methyl-5-(4-methyl-5-methylsulfamoyl-2-oxo-1,2-dihydro-indol-3-ylidenemethyl)-1H-pyrrole-3-carbonyl]-amino}-acetic acid ethyl ester] |  |  | > 100 µM |  |  |  | < 0.0005 µM | 
CCOC(=O)CNC(=O)c1c[nH]c(/C=C2\C(=O)Nc3ccc(S(=O)(=O)NC)cc32)c1C [Example 117, {[4-Methyl-5-(5-methylsulfamoyl-2-oxo-1,2-dihydro-indol-3-ylidenemethyl)-1H-pyrrole-3-carbonyl]-amino}-acetic acid ethyl ester] |  | 12.9 µM |  |  | 0.91 µM |  | 0.006 µM | 

Other lines, results leading:

IC50 [1] | IC50 [2] | IC50 [3] | IC50 [4] | IC50 [5] | IC50 [6] | IC50 [7] | IC50 [8] | SMILES
 | 61.6 µM | > 100 µM | > 100 µM | 1.38 µM |  | < 0.0005 µM |  | CNS(=O)(=O)c1ccc2c(c1)/C(=C/c1[nH]cc(C(=O)N3CCCCC3)c1C)C(=O)N2 [Example 119, 3-[3-Methyl-4-(piperidine-1-carbonyl)-1H-pyrrol-2-ylmethylene]-2-oxo-2,3-dihydro-1H-indole-5-sulfonic acid methylamide]
6.42 µM | 0.003 µM | 10.6 µM | 7.99 µM | 0.09 µM | 1.5 µM | 12.6 µM | 0.63 µM | CCN(CC)CCCNC(=O)c1c(C)[nH]c(/C=C2\C(=O)Nc3ccc(Br)cc32)c1C [Example 70, 5-(5-Bromo-2-oxo-1,2-dihydroindol-3-ylidenemethyl)-2,4-dimethyl-1H-pyrrole-3-carboxylic acid (3-diethylaminopropyl)amide]
> 100 µM | > 100 µM | > 100 µM |  | 9.85 µM | 9.62 µM |  | > 100 µM | COC(=O)c1cc(C)c(/C=C2\C(=O)Nc3ccccc32)[nH]1 [Example 3, 4-Methyl-5-(2-oxo-1,2-dihydroindol-3-ylidenemethyl)-1H-pyrrole-2-carboxylic acid methyl ester]
41.5 µM | 0.06 µM | 11.4 µM | 8.4 µM | 0.08 µM | 1.56 µM |  | 1.05 µM | CCN(CC)CCCNC(=O)c1c(C)[nH]c(/C=C2\C(=O)Nc3ccc(Br)cc32)c1-c1ccccc1 [Example 47, 5-(5-Bromo-2-oxo-1,2-dihydroindol-3-ylidenemethyl)-2-methyl-4-phenyl-1H-pyrrole-3-carboxylic acid (3-diethylaminopropyl)amide]
21.6 µM | 0.01 µM | 18.1 µM | 23.2 µM |  | 1.66 µM | 16.7 µM | 0.35 µM | CCN(CC)CCNC(=O)c1c(C)[nH]c(/C=C2\C(=O)Nc3ccc(Br)cc32)c1C [Example 51, 5-(5-Bromo-2-oxo-1,2-dihydroindol-3-ylidenemethyl)-2,4-dimethyl-1H-pyrrole-3-carboxylic acid (2-diethylaminoethyl)amide]
> 100 µM | < 0.78 µM | 12.5 µM | > 100 µM | 0.08 µM | 1.26 µM | 10.7 µM | 0.45 µM | Cc1[nH]c(/C=C2\C(=O)Nc3ccc(Br)cc32)c(C)c1C(=O)NCCN1CCCC1 [Example 52, 5-(5-Bromo-2-oxo-1,2-dihydroindol-3-ylidenemethyl)-2,4-dimethyl-1H-pyrrole-3-carboxylic acid (2-pyrrolidin-1-yl-ethyl)amide]
 |  | > 100 µM |  |  |  | 0.006 µM |  | CNS(=O)(=O)c1ccc2c(c1)C(=Cc1[nH]cc(C(=O)O)c1C)C(=O)N2 [Example 115, 4-Methyl-5-(5-methylsulfamoyl-2-oxo-1,2-dihydro-indol-3-ylidenemethyl)-1H-pyrrole-3-carboxylic acid]
